In ChEMBL document CHEMBL1201862, “PubChem BioAssay data set” (2004):
Activity calls are given as the source filed them.

Key:
Large T antigen = Large T antigen (Simian virus 40, UniProt P03070); assay type: functional, Betapolyomavirus macacae;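 also: Confirmatory-stage PubChem screen for compounds that inhibit SV40 T antigen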
Protein skinhead-1 = molecular target: T1, Protein skinhead-1 (Caenorhabditis elegans, UniProt P34707); assay type: functional
T1 sequence (P34707 whole entry): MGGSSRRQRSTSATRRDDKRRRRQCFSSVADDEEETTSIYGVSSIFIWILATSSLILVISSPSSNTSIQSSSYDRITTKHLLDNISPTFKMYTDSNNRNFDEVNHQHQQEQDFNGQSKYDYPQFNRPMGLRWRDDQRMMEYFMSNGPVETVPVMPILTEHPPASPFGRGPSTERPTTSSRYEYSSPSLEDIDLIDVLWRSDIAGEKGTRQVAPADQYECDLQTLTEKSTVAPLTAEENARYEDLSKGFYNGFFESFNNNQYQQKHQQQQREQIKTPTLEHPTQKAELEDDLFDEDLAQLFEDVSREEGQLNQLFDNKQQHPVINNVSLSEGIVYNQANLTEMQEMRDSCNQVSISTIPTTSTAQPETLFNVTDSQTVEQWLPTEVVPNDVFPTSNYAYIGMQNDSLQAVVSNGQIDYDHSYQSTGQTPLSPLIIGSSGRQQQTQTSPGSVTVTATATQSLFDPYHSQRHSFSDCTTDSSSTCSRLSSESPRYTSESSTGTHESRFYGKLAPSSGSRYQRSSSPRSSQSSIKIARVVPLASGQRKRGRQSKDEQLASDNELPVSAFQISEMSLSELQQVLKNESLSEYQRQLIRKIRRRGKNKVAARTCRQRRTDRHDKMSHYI

[1] = molecular target: FAD-linked sulfhydryl oxidase ALR (Homo sapiens, UniProt P55789); experiment: inhibitors of human ALR sulfhydryl oxidase, dose response, biochemical, H2O2 detection, luminescence, cherry-pick (AID 493248)
Sequence of FAD-linked sulfhydryl oxidase ALR (P55789 whole entry): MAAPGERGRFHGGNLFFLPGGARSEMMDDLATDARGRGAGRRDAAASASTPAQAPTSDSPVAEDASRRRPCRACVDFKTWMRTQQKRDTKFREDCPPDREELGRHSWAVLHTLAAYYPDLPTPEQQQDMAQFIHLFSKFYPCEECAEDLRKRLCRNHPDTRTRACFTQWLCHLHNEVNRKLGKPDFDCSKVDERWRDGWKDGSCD

[2] = molecular target: T2, Rac GTPase-activating protein 1 (Homo sapiens, UniProt Q9H0H5); experiment: MgcRacGAP GTPase-activating activity inhibitors, confirmation, biochemical, ADP Hunter fluorescence, primary and confirmatory (AID 624330); assay type: functional
T2 sequence (Q9H0H5 whole entry): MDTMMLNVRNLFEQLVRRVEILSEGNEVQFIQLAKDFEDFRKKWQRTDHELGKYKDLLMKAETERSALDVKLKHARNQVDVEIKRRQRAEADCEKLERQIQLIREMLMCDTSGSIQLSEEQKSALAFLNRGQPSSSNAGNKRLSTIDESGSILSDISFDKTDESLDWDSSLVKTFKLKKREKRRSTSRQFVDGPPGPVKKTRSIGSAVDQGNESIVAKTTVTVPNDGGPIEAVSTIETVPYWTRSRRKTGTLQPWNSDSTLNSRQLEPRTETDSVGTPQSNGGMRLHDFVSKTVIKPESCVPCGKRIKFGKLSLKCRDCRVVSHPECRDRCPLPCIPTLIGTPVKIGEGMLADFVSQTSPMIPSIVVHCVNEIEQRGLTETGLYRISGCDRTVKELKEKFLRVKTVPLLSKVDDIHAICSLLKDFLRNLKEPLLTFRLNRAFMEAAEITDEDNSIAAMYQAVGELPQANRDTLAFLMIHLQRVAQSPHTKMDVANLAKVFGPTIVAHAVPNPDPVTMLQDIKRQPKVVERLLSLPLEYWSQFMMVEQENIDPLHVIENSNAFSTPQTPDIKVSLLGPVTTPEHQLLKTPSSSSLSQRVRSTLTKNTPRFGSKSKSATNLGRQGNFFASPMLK

[3] = Luminescence Cell-Based Dose Confirmation HTS to Identify Activators of 5'UTR Stem-Loop Driven Alpha-Synuclein mRNA Translation in H4 Neuroglioblastoma Cells. [Related pubchem assays: 1829 (Project Summary), 1814 (Primary HTS)]; assay type: functional
[4] = molecular target: T3, RNA-binding protein pos-1 (Caenorhabditis elegans, UniProt G5EF15); experiment: inhibitors of POS-1/mex-3 RNA binding, dose response, biochemical, fluorescence polarization (AID 1964);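 also: purified POS-1 fused to maltose binding protein made in E. coli; potency of compounds blocking POS-1 binding to fluorescent RNA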
T3 sequence (G5EF15 whole entry): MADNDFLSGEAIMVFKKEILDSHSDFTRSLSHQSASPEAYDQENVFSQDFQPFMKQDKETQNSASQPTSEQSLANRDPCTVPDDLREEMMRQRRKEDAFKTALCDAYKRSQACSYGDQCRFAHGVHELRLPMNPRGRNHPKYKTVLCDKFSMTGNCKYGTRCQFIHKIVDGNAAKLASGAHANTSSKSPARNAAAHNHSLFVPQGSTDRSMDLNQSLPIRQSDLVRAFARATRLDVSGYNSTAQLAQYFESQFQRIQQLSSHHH

[5] = molecular target: T4, Zinc finger protein mex-5 (Caenorhabditis elegans, UniProt Q9XUB2); experiment: MEX-5/TCR-2 RNA interaction inhibitors, dose response, biochemical, C. elegans, fluorescence polarization (AID 1960)
T4 sequence (Q9XUB2 whole entry): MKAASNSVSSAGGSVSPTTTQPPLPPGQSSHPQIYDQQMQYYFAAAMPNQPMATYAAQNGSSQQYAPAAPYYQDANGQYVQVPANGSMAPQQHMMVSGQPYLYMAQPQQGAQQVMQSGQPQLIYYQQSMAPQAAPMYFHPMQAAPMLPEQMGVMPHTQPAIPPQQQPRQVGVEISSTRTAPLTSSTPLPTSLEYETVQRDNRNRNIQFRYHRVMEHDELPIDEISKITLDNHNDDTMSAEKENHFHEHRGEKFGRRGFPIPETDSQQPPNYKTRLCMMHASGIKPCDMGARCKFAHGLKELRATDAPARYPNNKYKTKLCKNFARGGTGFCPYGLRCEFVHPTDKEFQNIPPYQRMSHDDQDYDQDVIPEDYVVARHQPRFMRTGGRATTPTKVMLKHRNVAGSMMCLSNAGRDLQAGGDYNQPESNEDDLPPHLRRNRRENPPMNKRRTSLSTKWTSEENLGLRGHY

H4 = experiment: Luminescence Cell-Based Dose Response HTS to Identify Activators of 5'UTR Stem-Loop Driven Prion Protein mRNA Translation in H4 Neuroglioblastoma Cells. [Related pubchem assays: 1829 (Project Summary), 1814 (Primary HTS)]; assay type: functional; conditions: Homo sapiens
[6] = molecular target: T5, Corticotropin-releasing factor receptor 2/Corticotropin-releasing factor-binding protein (Homo sapiens, UniProt P24387+Q13324); experiment: activators of CRF receptor 2 with binding protein – uHTS hits, confirmation (AID 602473); assay type: functional; conditions: read-out: EC50_Mean
T5 sequence (Q13324 whole entry): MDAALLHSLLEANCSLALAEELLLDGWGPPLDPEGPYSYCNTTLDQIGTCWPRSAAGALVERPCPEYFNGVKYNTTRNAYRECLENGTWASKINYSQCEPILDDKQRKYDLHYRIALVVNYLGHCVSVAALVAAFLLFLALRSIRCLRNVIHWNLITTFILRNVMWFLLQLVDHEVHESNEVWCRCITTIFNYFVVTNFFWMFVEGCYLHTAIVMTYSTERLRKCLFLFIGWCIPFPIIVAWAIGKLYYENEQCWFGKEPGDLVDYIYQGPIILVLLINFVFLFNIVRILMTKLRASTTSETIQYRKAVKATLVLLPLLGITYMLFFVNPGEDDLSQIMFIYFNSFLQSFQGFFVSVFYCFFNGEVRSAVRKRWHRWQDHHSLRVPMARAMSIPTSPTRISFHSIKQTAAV
T5 sequence (P24387 whole entry): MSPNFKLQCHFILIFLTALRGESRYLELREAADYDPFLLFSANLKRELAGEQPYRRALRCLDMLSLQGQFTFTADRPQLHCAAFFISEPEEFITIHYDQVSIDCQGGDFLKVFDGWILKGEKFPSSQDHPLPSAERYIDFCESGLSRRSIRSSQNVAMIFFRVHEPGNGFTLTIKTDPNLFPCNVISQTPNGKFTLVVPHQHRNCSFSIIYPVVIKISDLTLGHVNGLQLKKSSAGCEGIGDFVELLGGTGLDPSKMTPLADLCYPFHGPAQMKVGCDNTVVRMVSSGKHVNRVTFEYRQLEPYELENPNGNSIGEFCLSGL

[7] = Luminescence Cell-Based Dose Response HTS to Identify Activators of Luciferase Translation or Activity in H4 […] Cells. [Related pubchem assays: 1829 (Project Summary), 1814 (Primary HTS)]; assay type: functional
Genome polyprotein = Genome polyprotein (dengue virus type 2, UniProt P29990); experiment: Dengue-2 NS5 methyltransferase inhibitors, primary screen, biochemical, confirmation dose response (AID 588689); assay type: functional
Sequence of Genome polyprotein (P29990 2492-3391 limits assumed): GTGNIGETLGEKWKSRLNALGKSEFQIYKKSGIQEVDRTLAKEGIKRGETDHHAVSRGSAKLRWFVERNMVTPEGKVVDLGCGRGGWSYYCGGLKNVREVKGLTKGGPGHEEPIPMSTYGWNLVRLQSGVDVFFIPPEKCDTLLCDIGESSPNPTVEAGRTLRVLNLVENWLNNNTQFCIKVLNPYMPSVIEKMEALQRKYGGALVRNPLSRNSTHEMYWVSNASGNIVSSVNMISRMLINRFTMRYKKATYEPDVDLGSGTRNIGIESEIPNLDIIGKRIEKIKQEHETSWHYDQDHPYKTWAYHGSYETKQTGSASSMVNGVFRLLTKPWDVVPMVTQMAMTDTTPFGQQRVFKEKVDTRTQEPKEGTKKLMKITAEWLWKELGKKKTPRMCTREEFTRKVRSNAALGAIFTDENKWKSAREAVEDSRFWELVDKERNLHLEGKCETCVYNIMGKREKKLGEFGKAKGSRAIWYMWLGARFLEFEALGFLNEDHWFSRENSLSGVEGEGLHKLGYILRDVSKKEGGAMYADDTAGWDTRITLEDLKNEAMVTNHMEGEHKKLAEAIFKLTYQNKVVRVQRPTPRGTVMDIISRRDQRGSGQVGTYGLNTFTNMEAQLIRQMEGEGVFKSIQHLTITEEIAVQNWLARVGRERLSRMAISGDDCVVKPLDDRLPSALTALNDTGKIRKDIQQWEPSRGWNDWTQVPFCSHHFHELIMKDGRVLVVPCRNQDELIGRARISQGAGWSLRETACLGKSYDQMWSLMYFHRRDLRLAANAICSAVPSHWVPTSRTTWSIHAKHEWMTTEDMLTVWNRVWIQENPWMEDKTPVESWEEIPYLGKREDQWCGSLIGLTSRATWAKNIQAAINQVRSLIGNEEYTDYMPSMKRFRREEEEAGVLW

[8] = molecular target: T6, Replicative DNA helicase DnaB (Mycobacterium tuberculosis, UniProt P9WMR3); experiment: DnaB intein splicing inhibitors, dose response, biochemical, cell-free fluorescence (AID 449749); assay type: functional
T6 sequence (P9WMR3 whole entry): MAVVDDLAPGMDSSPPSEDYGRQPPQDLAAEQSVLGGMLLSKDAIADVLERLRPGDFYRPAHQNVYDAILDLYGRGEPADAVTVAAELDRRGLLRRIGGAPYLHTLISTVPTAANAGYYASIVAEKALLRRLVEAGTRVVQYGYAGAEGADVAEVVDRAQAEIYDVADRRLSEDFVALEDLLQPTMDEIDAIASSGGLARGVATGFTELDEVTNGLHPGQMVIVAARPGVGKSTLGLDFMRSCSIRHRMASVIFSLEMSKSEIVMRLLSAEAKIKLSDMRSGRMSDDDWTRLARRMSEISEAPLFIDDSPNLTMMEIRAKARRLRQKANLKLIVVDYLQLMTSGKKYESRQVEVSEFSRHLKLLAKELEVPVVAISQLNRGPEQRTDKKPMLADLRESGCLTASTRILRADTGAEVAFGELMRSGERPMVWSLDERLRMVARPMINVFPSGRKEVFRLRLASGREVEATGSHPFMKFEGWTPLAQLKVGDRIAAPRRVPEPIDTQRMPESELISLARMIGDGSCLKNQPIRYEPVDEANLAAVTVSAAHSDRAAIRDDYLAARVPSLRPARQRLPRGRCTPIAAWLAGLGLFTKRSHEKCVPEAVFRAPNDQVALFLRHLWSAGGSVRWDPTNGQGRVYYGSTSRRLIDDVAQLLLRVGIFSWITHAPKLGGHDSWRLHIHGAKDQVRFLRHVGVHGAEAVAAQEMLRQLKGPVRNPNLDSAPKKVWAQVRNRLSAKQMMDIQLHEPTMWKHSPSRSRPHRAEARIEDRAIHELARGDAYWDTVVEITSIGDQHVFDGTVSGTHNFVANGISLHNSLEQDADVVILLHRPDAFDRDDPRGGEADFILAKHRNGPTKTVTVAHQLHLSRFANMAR

Protein RecA = molecular target: T7, Protein RecA (Mycobacterium tuberculosis, UniProt P9WHJ3); experiment: Fluorescence Cell-Free Homogeneous Dose Retest to Identify Inhibitors of RecA-Intein Splicing Activity. [Related pubchem assays (depositor defined):AID2097, AID2223, AID489010, AID492950]; assay type: functional
T7 sequence (P9WHJ3 whole entry): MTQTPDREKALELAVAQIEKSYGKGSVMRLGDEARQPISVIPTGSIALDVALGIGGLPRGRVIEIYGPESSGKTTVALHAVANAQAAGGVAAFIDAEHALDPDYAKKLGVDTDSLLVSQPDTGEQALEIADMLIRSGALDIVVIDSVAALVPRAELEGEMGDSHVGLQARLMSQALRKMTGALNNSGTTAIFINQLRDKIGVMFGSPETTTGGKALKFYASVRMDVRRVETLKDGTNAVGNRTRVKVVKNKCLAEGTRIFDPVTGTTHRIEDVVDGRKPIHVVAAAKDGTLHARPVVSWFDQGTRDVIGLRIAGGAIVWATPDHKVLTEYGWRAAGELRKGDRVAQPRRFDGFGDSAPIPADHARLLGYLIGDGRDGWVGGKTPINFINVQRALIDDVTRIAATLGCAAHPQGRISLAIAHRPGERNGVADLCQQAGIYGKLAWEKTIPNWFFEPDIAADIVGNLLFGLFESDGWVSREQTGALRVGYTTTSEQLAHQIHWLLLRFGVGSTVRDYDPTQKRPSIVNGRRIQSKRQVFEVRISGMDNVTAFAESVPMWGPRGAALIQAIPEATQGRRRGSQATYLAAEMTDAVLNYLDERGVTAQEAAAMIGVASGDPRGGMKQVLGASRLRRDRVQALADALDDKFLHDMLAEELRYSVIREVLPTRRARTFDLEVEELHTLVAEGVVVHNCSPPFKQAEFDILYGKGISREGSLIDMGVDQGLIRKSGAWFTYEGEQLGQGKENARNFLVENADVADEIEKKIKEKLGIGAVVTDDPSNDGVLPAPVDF

Sequence of Large T antigen (P03070 whole entry): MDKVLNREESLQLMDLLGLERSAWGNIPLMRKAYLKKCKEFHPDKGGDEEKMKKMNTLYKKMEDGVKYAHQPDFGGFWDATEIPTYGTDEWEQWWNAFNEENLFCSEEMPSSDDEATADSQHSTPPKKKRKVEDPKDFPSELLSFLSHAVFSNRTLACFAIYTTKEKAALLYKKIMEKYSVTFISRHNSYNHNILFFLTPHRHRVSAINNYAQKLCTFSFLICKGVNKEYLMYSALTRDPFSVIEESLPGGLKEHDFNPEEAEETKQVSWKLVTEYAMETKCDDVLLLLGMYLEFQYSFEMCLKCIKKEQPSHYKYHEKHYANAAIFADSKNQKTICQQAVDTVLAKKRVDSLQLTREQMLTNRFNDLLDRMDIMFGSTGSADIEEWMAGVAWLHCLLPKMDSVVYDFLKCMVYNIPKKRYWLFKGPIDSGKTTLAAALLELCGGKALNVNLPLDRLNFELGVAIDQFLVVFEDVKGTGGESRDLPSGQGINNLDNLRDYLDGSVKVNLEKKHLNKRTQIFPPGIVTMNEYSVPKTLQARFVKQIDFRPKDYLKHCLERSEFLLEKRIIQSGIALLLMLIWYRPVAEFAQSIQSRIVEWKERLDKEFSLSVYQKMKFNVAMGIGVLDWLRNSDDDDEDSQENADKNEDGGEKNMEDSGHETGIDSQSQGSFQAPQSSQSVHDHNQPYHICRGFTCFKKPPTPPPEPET

In the case of `O=C(Nc1ccc(O)cc1)C1CCCO1` (stereo not drawn), the IC50 (Large T antigen) is reported as 28.1 µM (active).

In the case of `Clc1cc(NCc2cccs2)ccc1N1CCOCC1`, the IC50 (Large T antigen) is reported as 65.2 µM (active) and the IC50 (Protein skinhead-1) is reported as > 100 µM (inactive).

For `CN(C)c1ccc(/C=C/c2cc[n+]([O-])cc2)cc1`, the IC50 (Large T antigen) was 11.4 µM (active).

For `COc1ccc(NC2CCCN(C(=O)CCn3cccn3)C2)cc1` (stereo not drawn), the IC50 (Large T antigen) was 9.68 µM (active) and the AC50 [1] was 2.78 µM (active).

With `COc1cc(/C=N/NC(=O)c2cnccn2)ccc1O` the IC50 (Large T antigen) was 5.52 µM (active) and the IC50 [2] was 20.3 µM (active).

For `Cc1cccc(-n2c(C)cc(C=C3C(=O)c4ccccc4C3=O)c2C)c1`, the EC50 [3] was 54.2 µM (active), the EC50 [4] was 46.6 µM (active) and the EC50 [5] was 34.7 µM (inconclusive). For the same molecule, the EC50 (H4) was 7.1 µM (active), the EC50 [6] was 12.9 µM (active) and the EC50 [7] was 11.4 µM (active).

With `CN1C(=O)C(=Cc2ccccc2Oc2ccc(Cl)cc2)C(=O)N(C)C1=O` the IC50 (Genome polyprotein) was 41.5 µM (active).

For `O=C1C(Cl)=C(N2CCOCC2)C(=O)N1c1ccc(Br)cc1`, the AC50 [8] was 4.11 µM (active), the IC50 (Genome polyprotein) was 36.2 µM (active) and the EC50 (Protein RecA) was 2.11 µM (active).
